{
  "source": "patent US20230048576A1",
  "about": "“COMPOUNDS FOR THE TREATMENT OF NEUROPATHIC PAIN” (City of Hope, priority 2019, published 2023)",
  "key": {"[1]": {"assay": "Formulation stability in 20% HPβCD in pH 8.0 buffer (HPLC area %)", "type": "physicochemical"}, "[2]": {"assay": "Survival of animals during the study", "type": "in vivo, rat", "description": "(§1) Neuropathic pain was induced by intraperitoneal administration of Taxol at a dose level of 6 mg/kg on study days 0-6 and 12 mg/kg on study days 7-12. Following injection of Taxol animals experienced pain as was assessed using the von Frey test. The development of neuropathic pain was confirmed by measuring mechanical allodynia (Von Frey test) on study day 13 (for inclusion) and on study day 14 (1 hour and 2 hour post dosing) and 24 hour post first dosing."}, "[3]": {"assay": "Pharmacokinetic study following a single oral administration", "type": "in vivo, Sprague-Dawley (SD) rats", "settings": "in 20% HPβCD in pH 8.0 buffer; 50 mg/kg oral gavage; vs salt in water, 4% DMSO in corn oil, Ora-Blend SF", "description": "Pharmacokinetic studies of four different formulations of LR-90 were investigated. LR-90 either in salt formulation dissolved in water, in 4% DMSO in corn oil, in 20% HPβCD in pH 8.0 buffer, and in Ora-Blend SF was delivered at a dose of 50 mg/kg by oral gavage in Sprague-Dawley (SD) rats. Blood samples were collected at 0 min, 15 min, 30 min, 1 hr, 2 hr, 4 hr, 8 hr, 24 hr and 48 hr post-dosing. LR-90 level was determined in plasma by LC-MS/MS assay."}, "[4]": {"assay": "Solubility of purified LR-90 in different vehicles", "type": "physicochemical", "settings": "20% HPβCD in pH 8.0 buffer (w/v); 5 or 10 mg/ml"}, "[5]": {"assay": "Mean group body weight in Taxol model", "type": "in vivo, rat", "settings": "25 mg/kg PO, Group 6", "description": "as §1"}, "[6]": {"settings": "5 mg/ml LR-90 in 20% HPβCD in pH 8.0 buffer"}, "[7]": {"settings": "10 mg/ml LR-90 in 20% HPβCD in pH 8.0 buffer"}},
  "data": [
    {"compound": "CC(C)(Oc1ccc(NC(=O)Nc2ccc(Cc3ccc(NC(=O)Nc4ccc(OC(C)(C)C(=O)O)cc4)c(Cl)c3)cc2Cl)cc1)C(=O)O", "note": "[LR-90, methylene bis[4,4′-(2-chlorophenylureidophenoxyisobutyric acid)]]", "values": [
      {"measurement": "Final Purity (24 hr) (HPLC area)", "setting": "[1]; [6]", "value": 99.20, "unit": "%"},
      {"measurement": "Initial Purity (HPLC area)", "setting": "[1]; [6]", "value": 99.21, "unit": "%"},
      {"measurement": "Final Purity (24 hr) (HPLC area)", "setting": "[1]; [7]", "value": 99.14, "unit": "%"},
      {"measurement": "Initial Purity (HPLC area)", "setting": "[1]; [7]", "value": 99.20, "unit": "%"},
      {"measurement": "degradation of the compound", "setting": "[1]; 20% HPβCD solution, at least for 24 hours", "value": "no degradation"},
      {"measurement": "Survived Animals in %", "setting": "[2]; 25 mg/kg PO, Group 6, Study Day 13", "value": 100, "unit": "%"},
      {"measurement": "Survived Animals in %", "setting": "[2]; 25 mg/kg PO, Group 6, Study Day 14", "value": 100, "unit": "%"},
      {"measurement": "Survived Animals in %", "setting": "[2]; 25 mg/kg PO, Group 6, Study Day 15", "value": 100, "unit": "%"},
      {"measurement": "Survived Animals in %", "setting": "[2]; 25 mg/kg PO, Group 6, Study Day 16", "value": 100, "unit": "%"},
      {"measurement": "Survived Animals in %", "setting": "[2]; 25 mg/kg PO, Group 6, Study Day 17", "value": 100, "unit": "%"},
      {"measurement": "Survived Animals in %", "setting": "[2]; 25 mg/kg PO, Group 6, Study Day 18", "value": 100, "unit": "%"},
      {"measurement": "Survived Animals in %", "setting": "[2]; 25 mg/kg PO, Group 6, Study Day 19", "value": 100, "unit": "%"},
      {"measurement": "Survived Animals in %", "setting": "[2]; 25 mg/kg PO, Group 6, Study Day 20", "value": 100, "unit": "%"},
      {"measurement": "Survived Animals in %", "setting": "[2]; 25 mg/kg PO, Group 6, Study Day 21", "value": 100, "unit": "%"},
      {"measurement": "Survived Animals in %", "setting": "[2]; 25 mg/kg PO, Group 6, Study Day 22", "value": 100, "unit": "%"},
      {"measurement": "Survived Animals in %", "setting": "[2]; 25 mg/kg PO, Group 6, Study Day 23", "value": 100, "unit": "%"},
      {"measurement": "Survived Animals in %", "setting": "[2]; 25 mg/kg PO, Group 6, Study Day 24", "value": 100, "unit": "%"},
      {"measurement": "Survived Animals in %", "setting": "[2]; 25 mg/kg PO, Group 6, Study Day 25", "value": 75, "unit": "%"},
      {"measurement": "Survived Animals in %", "setting": "[2]; 25 mg/kg PO, Group 6, Study Day 28", "value": 38, "unit": "%"},
      {"measurement": "Survived Animals in %", "setting": "[2]; 50 mg/kg PO, Group 5, Study Day 13", "value": 100, "unit": "%"},
      {"measurement": "Survived Animals in %", "setting": "[2]; 50 mg/kg PO, Group 5, Study Day 14", "value": 100, "unit": "%"},
      {"measurement": "Survived Animals in %", "setting": "[2]; 50 mg/kg PO, Group 5, Study Day 15", "value": 100, "unit": "%"},
      {"measurement": "Survived Animals in %", "setting": "[2]; 50 mg/kg PO, Group 5, Study Day 16", "value": 100, "unit": "%"},
      {"measurement": "Survived Animals in %", "setting": "[2]; 50 mg/kg PO, Group 5, Study Day 17", "value": 100, "unit": "%"},
      {"measurement": "Survived Animals in %", "setting": "[2]; 50 mg/kg PO, Group 5, Study Day 18", "value": 100, "unit": "%"},
      {"measurement": "Survived Animals in %", "setting": "[2]; 50 mg/kg PO, Group 5, Study Day 19", "value": 100, "unit": "%"},
      {"measurement": "Survived Animals in %", "setting": "[2]; 50 mg/kg PO, Group 5, Study Day 20", "value": 100, "unit": "%"},
      {"measurement": "Survived Animals in %", "setting": "[2]; 50 mg/kg PO, Group 5, Study Day 21", "value": 100, "unit": "%"},
      {"measurement": "Survived Animals in %", "setting": "[2]; 50 mg/kg PO, Group 5, Study Day 22", "value": 88, "unit": "%"},
      {"measurement": "Survived Animals in %", "setting": "[2]; 50 mg/kg PO, Group 5, Study Day 23", "value": 88, "unit": "%"},
      {"measurement": "Survived Animals in %", "setting": "[2]; 50 mg/kg PO, Group 5, Study Day 24", "value": 50, "unit": "%"},
      {"measurement": "Survived Animals in %", "setting": "[2]; 50 mg/kg PO, Group 5, Study Day 25", "value": 50, "unit": "%"},
      {"measurement": "Survived Animals in %", "setting": "[2]; 50 mg/kg PO, Group 5, Study Day 28", "value": 38, "unit": "%"},
      {"measurement": "Survived Animals in %", "setting": "[2]; 100 mg/kg PO, Group 4, Study Day 13", "value": 100, "unit": "%"},
      {"measurement": "Survived Animals in %", "setting": "[2]; 100 mg/kg PO, Group 4, Study Day 14", "value": 100, "unit": "%"},
      {"measurement": "Survived Animals in %", "setting": "[2]; 100 mg/kg PO, Group 4, Study Day 15", "value": 100, "unit": "%"},
      {"measurement": "Survived Animals in %", "setting": "[2]; 100 mg/kg PO, Group 4, Study Day 16", "value": 100, "unit": "%"},
      {"measurement": "Survived Animals in %", "setting": "[2]; 100 mg/kg PO, Group 4, Study Day 17", "value": 100, "unit": "%"},
      {"measurement": "Survived Animals in %", "setting": "[2]; 100 mg/kg PO, Group 4, Study Day 18", "value": 100, "unit": "%"},
      {"measurement": "Survived Animals in %", "setting": "[2]; 100 mg/kg PO, Group 4, Study Day 19", "value": 100, "unit": "%"},
      {"measurement": "Survived Animals in %", "setting": "[2]; 100 mg/kg PO, Group 4, Study Day 20", "value": 100, "unit": "%"},
      {"measurement": "Survived Animals in %", "setting": "[2]; 100 mg/kg PO, Group 4, Study Day 21", "value": 100, "unit": "%"},
      {"measurement": "Survived Animals in %", "setting": "[2]; 100 mg/kg PO, Group 4, Study Day 22", "value": 100, "unit": "%"},
      {"measurement": "Survived Animals in %", "setting": "[2]; 100 mg/kg PO, Group 4, Study Day 23", "value": 88, "unit": "%"},
      {"measurement": "Survived Animals in %", "setting": "[2]; 100 mg/kg PO, Group 4, Study Day 24", "value": 63, "unit": "%"},
      {"measurement": "Survived Animals in %", "setting": "[2]; 100 mg/kg PO, Group 4, Study Day 25", "value": 38, "unit": "%"},
      {"measurement": "Survived Animals in %", "setting": "[2]; 100 mg/kg PO, Group 4, Study Day 28", "value": 38, "unit": "%"},
      {"measurement": "pharmacokinetics (plasma LR-90 level) compared with the three other formulations", "setting": "[3]", "value": "superior"},
      {"measurement": "dissolution to a solution of the drug target concentration", "setting": "[4]", "value": "could be dissolved"},
      {"measurement": "Mean group body weight", "setting": "[5]; Baseline", "value": 223.50, "unit": "g"},
      {"measurement": "Mean group body weight (% from baseline)", "setting": "[5]; Baseline", "value": 100.00, "unit": "%"},
      {"measurement": "Mean group body weight", "setting": "[5]; Day 1", "value": 235.00, "unit": "g"},
      {"measurement": "Mean group body weight (% from baseline)", "setting": "[5]; Day 1", "value": 105.16, "unit": "%"},
      {"measurement": "Mean group body weight", "setting": "[5]; Day 3", "value": 237.50, "unit": "g"},
      {"measurement": "Mean group body weight (% from baseline)", "setting": "[5]; Day 3", "value": 106.26, "unit": "%"},
      {"measurement": "Mean group body weight", "setting": "[5]; Day 5", "value": 255.50, "unit": "g"},
      {"measurement": "Mean group body weight (% from baseline)", "setting": "[5]; Day 5", "value": 114.32, "unit": "%"},
      {"measurement": "Mean group body weight", "setting": "[5]; Day 7", "value": 264.30, "unit": "g"},
      {"measurement": "Mean group body weight (% from baseline)", "setting": "[5]; Day 7", "value": 118.31, "unit": "%"},
      {"measurement": "Mean group body weight", "setting": "[5]; Day 9", "value": 275.88, "unit": "g"}
    ]}
  ]
}
